Source: patent publication US20070066606A1, “Benzylbenzimidazolyl derivatives” (priority 2003, published 2007)

Molecular target: TIE-2 (Homo sapiens, UniProt Q02763)
Assay: TIE-2 kinase flashplate assay (phosphorylation of poly(Glu, Tyr) with 33P-ATP)
Format: biochemical
Conditions: read-out: Inhibition of TIE-2 IC50
Description: The TIE-2 tests can be carried out, for example, analogously to the methods indicated in WO 02/44156.
The assay determines the inhibiting activity of the substances to be tested in the phosphorylation of the substrate poly(Glu, Tyr) by Tie-2 kinase in the presence of radioactive ^33P-ATP. The phosphorylated substrate binds to the surface of a “flashplate” microtitre plate during the incubation time. After removal of the reaction mixture, the microtitre plate is washed a number of times and the radioactivity on its surface is subsequently measured. An inhibiting effect of the substances to be measured results in lower radioactivity compared with an undisturbed enzymatic reaction.

Sequence of TIE-2 (Q02763 23-1124, species assumed): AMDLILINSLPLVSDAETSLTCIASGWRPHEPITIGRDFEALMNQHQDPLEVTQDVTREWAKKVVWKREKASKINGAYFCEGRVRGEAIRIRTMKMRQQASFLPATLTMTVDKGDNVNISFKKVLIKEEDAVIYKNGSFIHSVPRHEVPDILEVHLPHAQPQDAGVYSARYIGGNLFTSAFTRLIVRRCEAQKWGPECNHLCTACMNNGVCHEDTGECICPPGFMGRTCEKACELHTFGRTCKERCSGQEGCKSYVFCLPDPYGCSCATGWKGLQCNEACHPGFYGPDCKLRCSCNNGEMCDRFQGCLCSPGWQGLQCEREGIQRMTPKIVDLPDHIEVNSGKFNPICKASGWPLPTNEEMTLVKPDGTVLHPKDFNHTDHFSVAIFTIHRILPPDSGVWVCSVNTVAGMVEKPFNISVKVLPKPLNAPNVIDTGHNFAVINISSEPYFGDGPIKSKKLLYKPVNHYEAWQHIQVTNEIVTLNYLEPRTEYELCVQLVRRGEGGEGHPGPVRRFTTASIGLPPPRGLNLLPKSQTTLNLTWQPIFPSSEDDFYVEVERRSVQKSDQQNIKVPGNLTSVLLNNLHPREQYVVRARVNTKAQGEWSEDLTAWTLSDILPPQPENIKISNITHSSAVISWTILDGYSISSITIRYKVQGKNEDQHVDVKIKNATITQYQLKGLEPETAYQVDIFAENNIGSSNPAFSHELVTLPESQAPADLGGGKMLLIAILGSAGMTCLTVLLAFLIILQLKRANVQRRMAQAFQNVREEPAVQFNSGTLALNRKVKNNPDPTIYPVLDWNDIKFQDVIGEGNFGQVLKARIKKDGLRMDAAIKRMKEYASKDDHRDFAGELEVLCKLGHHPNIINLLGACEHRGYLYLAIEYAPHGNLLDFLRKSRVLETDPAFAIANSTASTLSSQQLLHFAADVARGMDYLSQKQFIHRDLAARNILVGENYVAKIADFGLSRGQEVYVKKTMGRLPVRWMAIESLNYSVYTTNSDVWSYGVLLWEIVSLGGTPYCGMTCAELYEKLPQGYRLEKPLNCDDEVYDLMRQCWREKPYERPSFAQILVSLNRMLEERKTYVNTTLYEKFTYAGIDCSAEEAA

| SMILES | IC50 |
| --- | --- |
| Nc1nc2cc(Br)ccc2n1Cc1ccc(NS(=O)(=O)c2cccc(Cl)c2Cl)cc1 [N-[4-(2-amino-5-bromo-benzimidazol-1-ylmethyl)-phenyl]-2,3-dichloro-benzenesulfonamide] | 2780 nM |
| Nc1nc2cc(CCCO)ccc2n1Cc1ccc(NS(=O)(=O)c2cccc(Cl)c2Cl)cc1 [N-{4-[2-amino-5-(3-hydroxy-propyl)benzimidazol-1-yl-methyl]phenyl}-2,3-dichloro-benzenesulfonamide] | 320 nM |
